From US20240158412A1 (Faxian Therapeutics, LLC, priority 2021, published 2024) come the findings set out here.
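Further: fluorescence intensity readout of USP7 enzymatic activity, reaction incubated 90 min at room temperature.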

In this assay the target is USP7 (Homo sapiens, UniProt Q93009). The assay can be described thus: biochemical.
Sequence of USP7 (Q93009 whole entry): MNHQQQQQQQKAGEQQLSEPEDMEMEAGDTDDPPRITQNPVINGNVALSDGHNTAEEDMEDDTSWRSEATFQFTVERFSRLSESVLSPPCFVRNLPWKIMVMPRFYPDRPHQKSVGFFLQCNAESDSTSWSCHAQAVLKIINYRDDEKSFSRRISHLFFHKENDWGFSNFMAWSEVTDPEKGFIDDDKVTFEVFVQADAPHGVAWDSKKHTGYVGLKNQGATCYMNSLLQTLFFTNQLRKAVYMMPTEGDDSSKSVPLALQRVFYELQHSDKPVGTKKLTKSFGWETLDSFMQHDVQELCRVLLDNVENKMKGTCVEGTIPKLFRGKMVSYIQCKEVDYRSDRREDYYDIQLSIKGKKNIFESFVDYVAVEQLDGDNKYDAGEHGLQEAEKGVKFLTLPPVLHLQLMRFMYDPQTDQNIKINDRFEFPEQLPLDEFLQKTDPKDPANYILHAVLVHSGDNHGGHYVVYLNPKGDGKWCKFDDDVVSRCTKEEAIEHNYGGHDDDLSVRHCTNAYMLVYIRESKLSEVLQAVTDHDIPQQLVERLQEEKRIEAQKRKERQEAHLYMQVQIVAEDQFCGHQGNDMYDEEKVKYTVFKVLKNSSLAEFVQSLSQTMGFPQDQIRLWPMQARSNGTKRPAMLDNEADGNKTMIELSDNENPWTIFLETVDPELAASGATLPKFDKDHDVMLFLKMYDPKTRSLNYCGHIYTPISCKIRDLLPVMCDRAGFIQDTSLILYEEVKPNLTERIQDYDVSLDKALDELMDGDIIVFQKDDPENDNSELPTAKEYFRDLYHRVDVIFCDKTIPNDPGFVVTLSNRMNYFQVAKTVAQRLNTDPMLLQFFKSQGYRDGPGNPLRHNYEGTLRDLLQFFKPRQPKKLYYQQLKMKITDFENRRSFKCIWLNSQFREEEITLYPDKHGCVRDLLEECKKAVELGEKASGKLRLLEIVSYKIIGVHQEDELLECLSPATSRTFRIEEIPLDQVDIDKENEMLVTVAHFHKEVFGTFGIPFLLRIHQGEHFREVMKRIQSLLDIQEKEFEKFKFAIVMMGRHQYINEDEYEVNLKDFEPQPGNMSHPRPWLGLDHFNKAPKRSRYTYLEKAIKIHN
Protocol: Example A. Biochemical Assay of USP7 Inhibitor Potency (IC50)
Fluorescence intensity assay of USP7 activity in the presence USP7 inhibitors. Recombinant USP7 protein (catalogue number E-519) and the fluorescence substrate ubiquitin-rhodamine 110 (Rh110) (catalogue number U-555) were purchased from Boston Biochem (840 Memorial Drive, Cambridge, MA 02139). The reaction was carried out in buffer 20 mM HEPES, pH 7.3, 150 mM NaCl, 1 mM TCEP, 125 μg/mL BSA at room temperature in a black 384-well Microplate (Greiner, catalog number 781076).
Test compounds were dissolved in DMSO to make 50 mM stock solution. […] In wells of a black 384-well Microplate, 15 μl of 100 pM of USP7 enzyme was added to each well with pre-diluted compounds and incubated at room temperature for 30 minutes, followed by addition of 10 μl of ubiquitin-rhodamine 110 (Rh110) substrate to reach 160 nM final concentration. The reaction mixtures were incubated for additional 90 minutes at room temperature. The fluorescence signal of the digested substrate was measured on an EnVision microplate reader (PerkinElmer,), using excitation at 485 nm and emission at 535 nm. The IC50 values were calculated using XLfit software.
`N[C@H]1C[C@@H](N2CCCc3cc(Cl)cc(-c4ccnc5cc(CN6C(=O)CCC6=O)sc45)c32)C1` (single isomer, unassigned) [Example 42a, cis-1-((7-(1-(3-aminocyclobutyl)-6-chloro-1,2,3,4-tetrahydroquinolin-8-yl)thieno[3,2-b]pyridin-2-yl)methyl)pyrrolidine-2,5-dione]: the IC50 is below 10 nM. With `N[C@H]1C[C@H](N2CCCc3cc(Cl)cc(-c4ccnc5cc(CN6C(=O)CCC6=O)sc45)c32)C1` (single isomer, unassigned) [Example 42b, trans-1-((7-(1-(3-aminocyclobutyl)-6-chloro-1,2,3,4-tetrahydroquinolin-8-yl)thieno[3,2-b]pyridin-2-yl)methyl)pyrrolidine-2,5-dione] the figure was 10 to 100 nM; with `O=C1CCC(=O)N1Cc1cc2nccc(-c3cc(Cl)cc4c3N(C3CNC3)C[C@@H]3C[C@H]43)c2s1` (single isomer, unassigned) [Example 43a], above 1000 nM; with `O=C1CCC(=O)N1Cc1cc2nccc(-c3cc(Cl)cc4c3N(C3CNC3)C[C@H]3C[C@@H]43)c2s1` (single isomer, unassigned) [Example 43b], 10 to 100 nM.

The compound `C[C@H]1CCc2cc(Cl)cc(-c3ccnc4cc(CN5C(=O)CCC5=O)sc34)c2N1[C@@H]1CCNC1` (single isomer, unassigned) [Example 44a] displayed an IC50 of 10 to 100 nM. With `C[C@H]1CCc2cc(Cl)cc(-c3ccnc4cc(CN5C(=O)CCC5=O)sc34)c2N1[C@H]1CCNC1` (single isomer, unassigned) [Example 44b] the figure was 101 to 1000 nM; with `C[C@@H]1CCc2cc(Cl)cc(-c3ccnc4cc(CN5C(=O)CCC5=O)sc34)c2N1[C@@H]1CCNC1` (single isomer, unassigned) [Example 44c], 10 to 100 nM. With `O=C1CCC(=O)N1Cc1cc2nccc(-c3cc(Cl)cc4c3N([C@H]3CCCNCC3)CCC4)c2s1` (single isomer, unassigned) [Example 47a] the figure was below 10 nM; with `O=C1CCC(=O)N1Cc1cc2nccc(-c3cc(Cl)cc4c3N([C@@H]3CCCNCC3)CCC4)c2s1` (single isomer, unassigned) [Example 47b], below 10 nM. With `O=C1CCC(=O)N1Cc1cc2nccc(-c3cc(Cl)cc4c3N([C@H]3CCCNC3)CCC4)c2s1` (single isomer, unassigned) [Example 51a] the figure was below 10 nM; with `O=C1CCC(=O)N1Cc1cc2nccc(-c3cc(Cl)cc4c3N([C@@H]3CCCNC3)CCC4)c2s1` (single isomer, unassigned) [Example 51b], 10 to 100 nM. Turning to `O=C1CCC(=O)N1Cc1cc2nccc(-c3cc(Cl)cc4c3C(N3CCNCC3)CCO4)c2s1` (single isomer, unassigned) [Example 52b], the IC50 was below 10 nM. With `O=C1CCC(=O)N1Cc1cc2nccc(-c3cc(C(F)(F)F)cc4c3N([C@@H]3CCNC3)CCC4)c2s1` (single isomer, unassigned) [Example 78] the figure was 10 to 100 nM.

Consider `O=C1CCC(=O)N1Cc1cc2nccc(-c3cc(C(F)(F)F)cc4c3N([C@H]3CCNC3)CCC4)c2s1` (single isomer, unassigned) [Example 79], for which the IC50 was below 10 nM.

As for `O=c1ccn(CC(F)F)c(=O)n1Cc1cc2nccc(-c3cc(C(F)(F)F)cc4c3N([C@@H]3CCNC3)CCC4)c2s1` (single isomer, unassigned) [Example 80], the IC50 fell in the range of 10 to 100 nM. The result for `O=c1ccn(CC(F)(F)F)c(=O)n1Cc1cc2ncnc(-c3cc(Cl)cc4c3N([C@@H]3CCNC3)CCC4)c2s1` (single isomer, unassigned) [Example 90] reads below 10 nM. The result for `C[C@H]1C[C@@H](N2CCCc3cc(Cl)cc(-c4ccnc5cc(Cn6c(=O)ccn(CC(F)(F)F)c6=O)sc45)c32)CN1` (single isomer, unassigned) [Example 95a] reads below 10 nM; that for `C[C@@H]1C[C@H](N2CCCc3cc(Cl)cc(-c4ccnc5cc(Cn6c(=O)ccn(CC(F)(F)F)c6=O)sc45)c32)CN1` (single isomer, unassigned) [Example 95b], 10 to 100 nM; that for `O=C1CCC(=O)N1Cc1cc2nccc(-c3cc(Cl)cc4c3N([C@H]3CNC[C@@H]3F)CCC4)c2s1` (single isomer, unassigned) [Example 96a], below 10 nM. As for `O=C1CCC(=O)N1Cc1cc2nccc(-c3cc(Cl)cc4c3N([C@@H]3CNC[C@H]3F)CCC4)c2s1` (single isomer, unassigned) [Example 96b], the IC50 lay in the range of 10 to 100 nM. As to `CO[C@H]1CNC[C@@H]1N1CCCc2cc(Cl)cc(-c3ccnc4cc(CN5C(=O)CCC5=O)sc34)c21` (single isomer, unassigned) [Example 97a], the concentration for half-maximal inhibition (IC50) fell in the range of 101 to 1000 nM. With `CO[C@@H]1CNC[C@H]1N1CCCc2cc(Cl)cc(-c3ccnc4cc(CN5C(=O)CCC5=O)sc34)c21` (single isomer, unassigned) [Example 97b] the figure was below 10 nM. With `Cn1cc(Cc2cc3nccc(-c4cc(Cl)cc5c4N([C@@H]4CCNC4)CCC5)c3s2)nn1` (single isomer, unassigned) [Example 98] the figure was 101 to 1000 nM.

`Cn1cc(Cc2cc3nccc(-c4cc(Cl)cc5c4N([C@H]4CCNC4)CCC5)c3s2)nn1` (single isomer, unassigned) [Example 99] showed an IC50 of 10 to 100 nM. With `N#Cc1cc2c(c(-c3ccnc4cc(Cn5c(=O)ccn(CC(F)(F)F)c5=O)sc34)c1)N([C@H]1CCN([C@@H]3CC[C@H]3O)C1)CCC2` (single isomer, unassigned) [Example 107a] the figure was below 10 nM; with `N#Cc1cc2c(c(-c3ccnc4cc(Cn5c(=O)ccn(CC(F)(F)F)c5=O)sc34)c1)N([C@H]1CCN([C@H]3CC[C@@H]3O)C1)CCC2` (single isomer, unassigned) [Example 107b], 10 to 100 nM; with `O=C1CCC(=O)N1Cc1sc2c(-c3cc(Cl)cc4c3N(C3CCNC3)CCC4)ccnc2c1F` (single isomer, unassigned) [Example 108a], below 10 nM. With `O=C1CCC(=O)N1Cc1sc2c(-c3cc(Cl)cc4c3N(C3CCNC3)CCC4)ccnc2c1F` (single isomer, unassigned) [Example 108b] the figure was 10 to 100 nM; with `O=C1CCC(=O)N1Cc1cc2nccc(-c3cccc4c3N([C@H]3CCNC3)CCO4)c2s1` (single isomer, unassigned) [Example 111a], 10 to 100 nM.

`O=C1CCC(=O)N1Cc1cc2nccc(-c3cccc4c3N([C@@H]3CCNC3)CCO4)c2s1` (single isomer, unassigned) [Example 111b]: the 50% inhibitory concentration (IC50) was above 1000 nM. With `C[C@H](c1cc2nccc(-c3cc(C#N)cc4c3N([C@H]3CCNC3)CCC4)c2s1)N1C(=O)CCC1=O` (single isomer, unassigned) [Example 112a] the figure was 10 to 100 nM; with `C[C@@H](c1cc2nccc(-c3cc(C#N)cc4c3N([C@H]3CCNC3)CCC4)c2s1)N1C(=O)CCC1=O` (single isomer, unassigned) [Example 112b], 101 to 1000 nM. With `C[C@H](c1cc2nccc(-c3cc(C#N)cc4c3N([C@@H]3CCNC3)CCC4)c2s1)N1C(=O)CCC1=O` (single isomer, unassigned) [Example 112c] the figure was 101 to 1000 nM; with `C[C@@H](c1cc2nccc(-c3cc(C#N)cc4c3N([C@@H]3CCNC3)CCC4)c2s1)N1C(=O)CCC1=O` (single isomer, unassigned) [Example 112d], above 1000 nM. With `O=C1CCC(=O)N1Cc1cc2nccc(-c3cc(Cl)cc4c3N([C@@H]3CCNC3)CC3CC43)c2s1` (single isomer, unassigned) [Example 113a] the figure was 101 to 1000 nM; with `O=C1CCC(=O)N1Cc1cc2nccc(-c3cc(Cl)cc4c3N([C@@H]3CCNC3)CC3CC43)c2s1` (single isomer, unassigned) [Example 113b], 10 to 100 nM. As to `O=C1CCC(=O)N1Cc1cc2nccc(-c3cc(Cl)cc4c3N(C3CCNC3)C[C@@H]3C[C@H]43)c2s1` (single isomer, unassigned) [Example 113c], the IC50 lay in the range of 10 to 100 nM. With `O=C1CCC(=O)N1Cc1cc2nccc(-c3cc(Cl)cc4c3N([C@H]3CCNC3)C[C@H]3C[C@@H]43)c2s1` (single isomer, unassigned) [Example 113d] the figure was below 10 nM; with `CC1(C)C[C@@H](N2CCCc3cc(Cl)cc(-c4ccnc5cc(Cn6c(=O)ccn(CC(F)(F)F)c6=O)sc45)c32)CN1` (single isomer, unassigned) [Example 118a], 10 to 100 nM. With `CC1(C)C[C@H](N2CCCc3cc(Cl)cc(-c4ccnc5cc(Cn6c(=O)ccn(CC(F)(F)F)c6=O)sc45)c32)CN1` (single isomer, unassigned) [Example 118b] the figure was below 10 nM. With `Cc1cnn(Cc2cc3nccc(-c4cc(C#N)cc5c4N(C4CNC(C)(C)C4)CCC5)c3s2)c(=O)c1` (single isomer, unassigned) [Example 120a], the IC50 is below 10 nM. With `Cc1cnn(Cc2cc3nccc(-c4cc(C#N)cc5c4N(C4CNC(C)(C)C4)CCC5)c3s2)c(=O)c1` (single isomer, unassigned) [Example 120b] the figure was 101 to 1000 nM; with `CC1(C)CC(N2CCOc3cc(C#N)cc(-c4ccnc5cc(Cn6c(=O)ccn(CC(F)(F)F)c6=O)sc45)c32)CN1` (single isomer, unassigned) [Example 133a], below 10 nM. With `CC1(C)CC(N2CCOc3cc(C#N)cc(-c4ccnc5cc(Cn6c(=O)ccn(CC(F)(F)F)c6=O)sc45)c32)CN1` (single isomer, unassigned) [Example 133b] the figure was 101 to 1000 nM; with `O=C1CCC(=O)N1Cc1cc2nccc(-c3cc(Cl)cc4c3N([C@H]3CNC5(CCC5)C3)CCC4)c2s1` (single isomer, unassigned) [Example 139a], 10 to 100 nM; with `O=C1CCC(=O)N1Cc1cc2nccc(-c3cc(Cl)cc4c3N([C@@H]3CNC5(CCC5)C3)CCC4)c2s1` (single isomer, unassigned) [Example 139b], below 10 nM. With `O=C1CCC(=O)N1Cc1cc2nccc(-c3cc(Cl)cc4c3N([C@@H]3CN(C[C@H](O)C(F)(F)F)C5(CCC5)C3)CCC4)c2s1` (single isomer, unassigned) [Example 143a] the figure was 10 to 100 nM. As for `O=C1CCC(=O)N1Cc1cc2nccc(-c3cc(Cl)cc4c3N([C@@H]3CN(C[C@@H](O)C(F)(F)F)C5(CCC5)C3)CCC4)c2s1` (single isomer, unassigned) [Example 143b], the IC50 fell in the range of 101 to 1000 nM.
